From ChEMBL document CHEMBL3351325, “Synthesis and biological evaluation of hydroxycinnamic acid hydrazide derivatives as inducer of caspase-3” (Eur J Med Chem, 2014) come the findings set out here.

The source made the active and inactive calls. The calls are words filed in the database; no cut-off is given here.

Data set [1] in a line: Antiproliferative activity against human H1299 cells after 24 hrs by MTT assay. It counts as functional, cell-based. The settings on record: NCI-H1299, 24 h. A general note: Tetrazolium assays rely on reduction of a dye to a coloured formazan, in cell work by metabolically active cells.
The nature of data set [2]: Antiproliferative activity against human NL20 cells after 24 hrs by MTT assay. It counts as cell-based. The settings on record: NL20, 24 h.
The subject of the next data set is MCF7. Description: Antiproliferative activity against human MCF7 cells after 24 hrs by MTT assay. It counts as functional, cell-based. The settings on record: MCF7, 24 h.
Data set [3] in a line: Antiproliferative activity against human H184B5F5/M10 cells after 24 hrs by MTT assay. The settings on record: H184B5F5/M10, 24 h. It counts as functional, cell-based.
Data set [4] can be described thus: Cell cycle arrest in human H1299 cells assessed as accumulation at Sub-G1 phase at 1.5 uM after 12 hrs by flow cytometry (reference value: 5.3%). The settings on record: NCI-H1299. It counts as functional, cell-based. On the technique in general: A flow cytometer gives signals particle by particle.
A short description of data set [5]: Cell cycle arrest in human H1299 cells assessed as accumulation at Sub-G1 phase at 1.5 uM after 24 hrs by flow cytometry (reference value: 5.3%). The settings on record: NCI-H1299. It counts as functional, cell-based.
Data set [6] can be described thus: Cell cycle arrest in human H1299 cells assessed as reduction in G1 phase at 1.5 uM after 12 to 24 hrs by flow cytometry. It counts as functional, cell-based. The settings on record: NCI-H1299.
Data set [7] is described as follows: Cell cycle arrest in human H1299 cells assessed as accumulated at G2/M phase at 1.5 uM by flow cytometry. It counts as functional, cell-based. The settings on record: NCI-H1299, TDE = time-dependent effect.
Data set [8] is described as follows: Cell cycle arrest in human H1299 cells assessed as accumulated at G2/M phase at 1.5 uM after 12 hrs by flow cytometry (reference value: 5.4%). It counts as functional, cell-based. The settings on record: NCI-H1299.
The nature of data set [9]: Cell cycle arrest in human H1299 cells assessed as accumulated at G2/M phase at 1.5 uM after 24 hrs by flow cytometry (reference value: 5.4%). It counts as functional, cell-based. The settings on record: NCI-H1299.
Data set [10] in a line: Cell cycle arrest in human NL20 cells assessed as accumulation at Sub-G1 phase at 1.5 uM after 12 hrs by flow cytometry (reference value: 4.6 %). It counts as ADME, cell-based. The settings on record: nl20, 12 h.
The nature of data set [11]: Cell cycle arrest in human NL20 cells assessed as accumulation at Sub-G1 phase at 1.5 uM after 24 hrs by flow cytometry (reference value: 4.6 %). It counts as ADME, cell-based. The settings on record: nl20, 24 h.
A short description of data set [12]: Cell cycle arrest in human NL20 cells assessed as accumulation at G2/M phase at 1.5 uM after 12 to 24 hrs by flow cytometry. It counts as ADME, cell-based. The settings on record: nl20, 1.5 µM.
Data set [13] relates to NCI-H1299. Put plainly: Induction of apoptosis in human H1299 cells assessed as change in morphology at 1.5 uM after 24 hrs using Acridine orange/ethidium bromide staining by fluorescence microscopy. It counts as functional, cell-based.
The test system of data set [14] is NCI-H1299. Put plainly: Induction of apoptosis in human H1299 cells assessed as caspase 3 protein expression after 24 hrs by Western blot analysis. It counts as functional, cell-based.

For orientation: IC50 means the midpoint of a concentration-inhibition curve. A lower IC50 goes with greater potency. With `COc1cc(/C=C/C(=O)NNC(=O)c2ccc(O)cc2)cc(OC)c1O`, the IC50 is 8.71 µM in [1], more than 10 µM in data set [2], 9.32 µM with MCF7 and more than 10 µM in data set [3].

As to `CC[C@@]1(O)C(=O)OCc2c1cc1n(c2=O)Cc2cc3c(CN(C)C)c(O)ccc3nc2-1` [TOPOTECAN], the concentration for half-maximal inhibition (IC50) in data set [1] was 4.18 µM; in data set [2], more than 10 µM; in the data set with MCF7 it was 3.46 µM; in data set [3], more than 10 µM.

On to `O=C(/C=C/c1ccc(O)cc1)NNC(=O)c1ccc(O)cc1`, for which the IC50 in data set [1] was 5.47 µM; in data set [2], 8.62 µM; with MCF7, 8.8 µM; in data set [3], more than 10 µM.

Regarding `O=C(/C=C/c1ccc(O)c(O)c1)NNC(=O)c1ccccc1`, the IC50 was 6.77 µM in data set [1], 8.85 µM in data set [2], 4.75 µM with MCF7 and 8.12 µM in data set [3].

On to `COc1ccc(C(=O)NNC(=O)/C=C/c2ccc(O)c(O)c2)cc1`, for which the IC50 in [1] came out at 5.42 µM; in data set [2], 9.39 µM; in the data set on MCF7 it was 4.86 µM; in data set [3] it was 9.57 µM.

For `COc1ccc(C(=O)NNC(=O)/C=C/c2cc(OC)c(O)c(OC)c2)cc1`, the IC50 in data set [1] was 7.45 µM; in data set [2], 9.42 µM; with MCF7, 7.17 µM; in [3], 9.45 µM.

On to `COc1cc(/C=C/C(=O)NNC(=O)c2ccc(O)cc2)ccc1O`, for which the half-maximal inhibitory concentration (IC50) in [1] was 1.5 µM; in [2], more than 10 µM; in the data set with MCF7 it was 4.36 µM; in [3] it was more than 10 µM. The Activity in [4] is 8.9%; in [5], 12.3%; in data set [7] it was “tde”; in data set [8] it was 31.7%; in data set [9] it was 46.2%; in data set [10], 5.2%. In addition, the figures for the Activity (in [11]; in [12]; in the data set with NCI-H1299 [14]) were 4.9%, “Non-toxic” and “Dose-dependent effect”, respectively. In addition, the outcome (in [6]; with NCI-H1299 [13]) was Active.

Take `COc1cc(/C=C/C(=O)NNC(=O)c2ccccc2)ccc1O`: the IC50 in data set [1] is 6.16 µM; in data set [2], 9.55 µM; in the data set with MCF7, 5.22 µM; in [3], 9.17 µM.

As for `O=C(/C=C/c1ccc(O)c(O)c1)NNC(=O)c1ccc(O)cc1`, the IC50 in data set [1] was 4.48 µM; in [2], more than 10 µM; with MCF7, 6.05 µM; in data set [3] it was 8.68 µM.

As for `COc1cc(/C=C/C(=O)NNC(=O)c2ccccc2)cc(OC)c1O`, the IC50 (in data set [1]; in data set [2]; with MCF7; in [3]) was more than 10 µM each time.

In the case of `COc1ccc(C(=O)NNC(=O)/C=C/c2ccc(O)cc2)cc1`, the half-inhibitory concentration (IC50) in [1] is 6.64 µM; in data set [2], more than 10 µM; in the data set with MCF7, 6.02 µM; in data set [3], 8.44 µM.

Take `O=C(/C=C/c1ccc(O)cc1)NNC(=O)c1ccccc1`: the IC50 in [1] was determined as 7.36 µM; in [2] it was 9.75 µM; with MCF7 it was 7.39 µM; in data set [3], 9.32 µM.

Turning to `COc1ccc(C(=O)NNC(=O)/C=C/c2ccc(O)c(OC)c2)cc1`, the half-inhibitory concentration (IC50) is 5.42 µM in data set [1], more than 10 µM in data set [2], 5.62 µM in the data set with MCF7 and more than 10 µM in data set [3].
